Values of other authors as cited in US7604671B2, “Perfumery for improved cold throw and burn in candle systems” (Givaudan Fragrances Corporation, priority 2004, dated 2009).

Details: Randebrock 1986

CCCCCCCCCCC=O [1-undecanal]
experimental value for odor detection threshold in air: 0.00054 mg/m^3
